The record followed here is US8455495B2, “Pyridazino-pyridinone compounds and methods of use” (Amgen Inc., priority 2008, dated 2013).

One may read the pIC50 as −log10 of the IC50, conventionally taken in molar units.

pIC50: −log10 of the molar value. Read-outs that look alike come from different tables or passages of the source.

One assay addresses recombinant human p38α (Homo sapiens, UniProt Q16539). Kind of assay: Purified and activated recombinant human p38α HTRF assay. The class given is biochemical. The settings on record: 1 nM p38α, 50 μM ATP, GST-ATF2 substrate, read-out: p38a IC50. The procedure: Purified and Activated Recombinant Human p38α Assay Kinase Reaction Buffer: […] HTRF Detection Buffer: […] Serial Dilution of Compounds: […] Columns 6 and 12 (HI controls and LO controls respectively) in the drug plate were reserved as controls and contained only DMSO. Kinase Reaction: […] See table below for actual concentrations. In the absence of substrate, the background was measured as LO control. […] Assay Reagent Concentrations: […] HTRF Detection: […] After 60 minutes incubation at room temperature, the assay plate was read in a Discovery Plate Reader. The wells were excited with coherent 320 nm light and the ratio of delayed ([…] post excitation) emissions at […] (native europium fluorescence) and 665 nm (europium fluorescence transferred to allophycocyanin-an index of substrate phosphorylation) was determined (Park et al, 1999). Data Analysis: […] Data (consisting of POC and inhibitor concentration in μM) was fitted to a 4-parameter equation ([…]))), where A is the minimum y (POC) value, B is the maximum y (POC), C is the x (compound concentration) at the point of inflection and D is the slope factor, using a Levenburg-Marquardt non-linear regression algorithm. The inhibition constant (Ki) of the inhibitor was estimated from the IC50 (compound concentration at the point of inflection C) using the Cheng-Prussof equation: […] All results were expressed as the mean±the standard error of the mean. Data acquisition and non-linear regression algorithms were performed using Activity Base v5.2 and XL-fit software v4.1 respectively. All data was archived using Activity Base v5.2 software.
(In general: Time-resolved FRET reads energy transfer from a long-lived donor to a nearby acceptor.)

Assay [1] concerns production of IL-1β, IL-6, and TNF-α by PBMC activated with LPS. Kind of assay: Lipopolysaccharide-activated PBMC cytokine production assay. The class given is cell-based. The settings on record: Homo sapiens, read-out: IC50 in PBMC cytokine production assay. The method, then:
Lipopolysaccharide-Activated Pbmc Cytokine Production Assay
Test compounds were evaluated in vitro for the ability to inhibit the production of IL-1β, IL-6, and TNF-α by PBMC activated with bacterial lipopolysaccharide (LPS). Fresh leukocytes were obtained from a local blood bank, and peripheral blood mononuclear cells (PBMCs) were isolated by density gradient centrifugation on Ficol-Paque Plus (Pharmacia).
Preparation of Test Compound Stock Solutions
All reagents were prepared in RPMI 1640+10% v/v human AB serum+1× Pens/Strep/Glu (assay medium). Test compounds were dissolved in 100% DMSO and serially diluted in 96-well polypropylene round bottom micro titer plates (drug plate). Serial dilutions were then diluted 1:250 into assay medium to a 4× working concentration. Compound serial dilutions were half-log, 10 point titrations with a final starting concentration of 1 μM.
Treatment of Cells with Test Compounds and Activation with Lipopolysaccharide
LPS was prepared to a 4× concentration in assay medium. 100 μl of PBMC (1×10^6 cells/ml) were plated in a 96-well polystyrene flat bottom micro titer tissue culture plate and incubated with 50 μl of 4× compound serial dilution for 1 hour at 37° C., 5% CO2 in a tissue culture incubator. 50 μl 4×LPS or control was added and the plates were incubated at 37° C., 5% CO2 in a tissue culture incubator for 18 hours. The final DMSO concentration was 0.1%. The total volume was 200 μL. The final LPS concentration was 100 ng/mL. After 18 hours culture supernatants were removed and IL-1β, IL-6, and TNF-α presence in the supernatants was quantified using MSD ECL based technology.
20 μL of culture supernatant were added to MSD plates, and incubated for one hour at room temperature. 20 μL of detection antibody diluted in antibody diluent (1 μg/mL), and 110 μL of 2× Read Buffer P was added, and incubated for one hour at RT. Electrochemiluminescence was measured using the SECTOR HTS Imager (MSD, Gaithersburg, Md.).
Compound IC50 values were calculated as follows: The proportion of cytokine production in the presence of compound compared to the cytokine production in the presence of the DMSO vehicle alone (Hi control) was calculated using the formula: Percent Control (POC)=(compound−average Lo)/(average Hi−average Lo)*100.

Assay [2] concerns TNF-α production by LPS-activated THP1 cells. In words: Lipopolysaccharide-activated THP1 cell TNF production assay. It is filed as cell-based. The settings on record: Homo sapiens, read-out: IC50 in THP-1 cellular TNF production assay. The procedure: Lipopolysaccharide-Activated THP1 Cell TNF Production Assay
THP1 cells were resuspended in fresh THP1 media (RPMI 1640, 10% heat-inactivated FBS, 1×PGS, 1×NEAA, plus 30 μM βME) at a concentration of 1.5×10^6 cells per mL. One hundred microliters of cells per well were plated in a polystyrene 96-well tissue culture plate. 1.5 micrograms per mL of bacterial LPS was prepared in THP1 media and transferred to the first 11 columns of a 96-well polypropylene plate. Column 12 contained only THP1 media for the LO control. Compounds were dissolved in 100% DMSO and serially diluted 3 fold in a polypropylene 96-well microtiter plate (drug plate). Columns 6 and 12 were reserved as controls (HI controls and LO controls respectively) and contained only DMSO. 10 μL of LPS followed by one microliter of inhibitor compound from the drug plate was transferred to the cell plate. The treated cells were induced to synthesize and secrete TNF-α in a 37° C. humidified incubator with 5% CO2 for 3 hours. Fifty microliters of conditioned media was transferred to a 96-well MULTI-ARRAY™ 96-well small spot plate—custom coated with MAB610 containing 100 μL of 2× Read Buffer P supplemented with 0.34 nM AF210NA polyclonal Ab labeled with ruthenium (MSD—Sulfo-TAG™—NHS ester). After an overnight incubation at room temperature with shaking, the reaction was read on the Sector Imager™ 6000. […] The amount of secreted TNF-α in the presence of test compounds compared with that in the presence of DMSO vehicle alone (HI control) was calculated using the formula: % control (POC)=(cpd−average LO)/(average HI−averageLO)*100. Data (consisting of POC and inhibitor concentration in μM) was fitted to a 4-parameter equation (y=A+((B−A)/(1+((x/C)^D))), where A is the minimum y (POC) value, B is the maximum y (POC), C is the x (cpd concentration) at the point of inflection and D is the slope factor) using a Levenburg-Marquardt non-linear regression algorithm.

Where [3] appears, read: THP-1, THP1 cells, LPS, 3 hours.

recombinant human p38α, sequence (Q16539 whole entry): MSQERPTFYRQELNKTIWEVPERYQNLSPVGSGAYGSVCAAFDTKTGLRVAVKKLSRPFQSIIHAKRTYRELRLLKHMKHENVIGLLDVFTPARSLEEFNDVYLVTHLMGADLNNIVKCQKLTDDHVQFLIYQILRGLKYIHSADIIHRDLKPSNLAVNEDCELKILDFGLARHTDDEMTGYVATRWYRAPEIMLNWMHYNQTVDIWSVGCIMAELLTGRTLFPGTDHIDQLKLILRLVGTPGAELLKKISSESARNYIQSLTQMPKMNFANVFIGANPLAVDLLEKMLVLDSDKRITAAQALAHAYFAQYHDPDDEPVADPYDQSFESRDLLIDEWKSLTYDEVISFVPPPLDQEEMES

For `Cc1ccc(C(N)=O)cc1-c1cc2cnnc(-c3ccc(F)cc3F)c2n(C)c1=O` [Example 2, 3-(8-(2,4-difluorophenyl)-1-methyl-2-oxo-1,2-dihydropyrido[3,2-d]pyridazin-3-yl)-4-methylbenzamide], the negative-log IC50 (pIC50) at recombinant human p38α is 8.52; in assay [1] (18 h), at least 6.00; in assay [2] (THP-1, 3 h) it was at least 6.00.

Take `Cn1c(=O)c(-c2cc(C(=O)NC3CC3)ccc2Cl)cc2cnnc(-c3ccc(F)cc3F)c21` [Example 5, 4-chloro-N-cyclopropyl-3-(8-(2,4-difluorophenyl)-1-methyl-2-oxo-1,2-dihydropyrido[3,2-d]pyridazin-3-yl)benzamide]: the pIC50 on recombinant human p38α is 8.80; in assay [1] (18 h), at least 6.00; in assay [2] (THP-1, 3 h), at least 6.00.

As for `Cc1ccc(C(=O)NC2CC2)cc1-c1cc2cnnc(-c3ccccc3C)c2n(C)c1=O` [Example 6, N-cyclopropyl-4-methyl-3-(1-methyl-2-oxo-8-o-tolyl-1,2-dihydropyrido[3,2-d]pyridazin-3-yl)benzamide], the pIC50 is 7.94 at recombinant human p38α; at least 6.00 in assay [1] (18 h); at least 6.00 in assay [2] (THP-1, 3 h).

In the case of `Cc1ccccc1-c1nncc2cc(-c3cc(C(=O)NC4CC4)cc(F)c3C)c(=O)n(C)c12` [Example 7, N-cyclopropyl-3-fluoro-4-methyl-5-(1-methyl-2-oxo-8-o-tolyl-1,2-dihydropyrido[3,2-d]pyridazin-3-yl)benzamide], the pIC50 on recombinant human p38α was 8.82; in assay [1] (18 h) it was at least 6.00; in assay [2] (THP-1, 3 h), at least 6.00.

Turning to `Cc1ccc(C(=O)NC2CC2)cc1-c1cc2cnnc(-c3ccccc3Cl)c2n(C)c1=O` [Example 8, 3-(8-(2-chlorophenyl)-1-methyl-2-oxo-1,2-dihydropyrido[3,2-d]pyridazin-3-yl)-N-cyclopropyl-4-methylbenzamide], the pIC50 at recombinant human p38α is 8.80; in assay [1] (18 h) it was at least 6.00; in assay [2] (THP-1, 3 h) it was at least 6.00.

Consider `Cc1ccc(C(=O)NC2CC2)cc1-c1cc2cnnc(-c3ccc(C(F)(F)F)cc3F)c2n(C)c1=O` [Example 9, N-cyclopropyl-3-(8-(2-fluoro-4-(trifluoromethyl)phenyl)-1-methyl-2-oxo-1,2-dihydropyrido[3,2-d]pyridazin-3-yl)-4-methylbenzamide], for which the pIC50 at recombinant human p38α is 8.70; in assay [1] (LPS 100 ng/mL, 18 hours), at least 6.00; in assay [2] (setting [3]), at least 6.00.

Turning to `Cc1ccc(C(=O)NC2CC2)cc1-c1cc2cnnc(-c3ccccc3C(F)(F)F)c2n(C)c1=O` [Example 10, N-cyclopropyl-4-methyl-3-(1-methyl-2-oxo-8-(2-(trifluoromethyl)phenyl)-1,2-dihydropyrido[3,2-d]pyridazin-3-yl)benzamide], the pIC50 on recombinant human p38α was 8.54; in assay [1] (LPS 100 ng/mL, 18 hours), at least 6.00; in assay [2] (setting [3]), at least 6.00.

In the case of `Cc1c(F)cc(C(=O)NC2CC2)cc1-c1cc2cnnc(-c3ccccc3C(F)(F)F)c2n(C)c1=O` [Example 11, N-cyclopropyl-3-fluoro-4-methyl-5-(1-methyl-2-oxo-8-(2-(trifluoromethyl)phenyl)-1,2-dihydropyrido[3,2-d]pyridazin-3-yl)benzamide], the pIC50 at recombinant human p38α was 8.62; in assay [1] (LPS 100 ng/mL, 18 hours), at least 6.00; in assay [2] (setting [3]), at least 6.00.

`Cc1ccc(C(=O)NC2CC2)cc1-c1cc2cnnc(-c3ccc(F)cc3C)c2n(C)c1=O` [Example 12, N-cyclopropyl-3-(8-(4-fluoro-2-methylphenyl)-1-methyl-2-oxo-1,2-dihydropyrido[3,2-d]pyridazin-3-yl)-4-methylbenzamide]: the negative logarithm of the IC50 (pIC50) on recombinant human p38α was 8.60; in assay [1] (LPS 100 ng/mL, 18 hours), at least 6.00; in assay [2] (setting [3]), at least 6.00.

For `Cc1ccc(C(=O)NC2CC2)cc1-c1cc2cnnc(-c3ccc(F)cc3Cl)c2n(C)c1=O` [Example 13, N-cyclopropyl-3-(8-(2-chloro-4-fluorophenyl)-1-methyl-2-oxo-1,2-dihydropyrido[3,2-d]pyridazin-3-yl)-4-methylbenzamide], the pIC50 at recombinant human p38α is 8.55; in assay [1] (LPS 100 ng/mL, 18 hours) it was at least 6.00; in assay [2] (setting [3]), at least 6.00.

Turning to `Cc1cc(F)ccc1-c1nncc2cc(-c3cc(C(=O)NC4CC4)cc(F)c3C)c(=O)n(C)c12` [Example 16, N-cyclopropyl-3-fluoro-5-(8-(4-fluoro-2-methylphenyl)-1-methyl-2-oxo-1,2-dihydropyrido[2,3-d]pyridazin-3-yl)-4-methylbenzamide], the pIC50 on recombinant human p38α was 8.52; in assay [1] (LPS 100 ng/mL, 18 hours), at least 6.00; in assay [2] (setting [3]), at least 6.00.

As for `Cc1c(F)cc(C(=O)NC2CC2)cc1-c1cc2cnnc(-c3ccc(F)cc3Cl)c2n(C)c1=O` [Example 17, 3-(8-(2-chloro-4-fluorophenyl)-1-methyl-2-oxo-1,2-dihydropyrido[2,3-d]pyridazin-3-yl)-N-cyclopropyl-5-fluoro-4-methylbenzamide], the pIC50 at recombinant human p38α is 8.74; in assay [1] (LPS 100 ng/mL, 18 hours) it was at least 6.00; in assay [2] (setting [3]), at least 6.00.

Consider `Cc1c(F)cc(C(=O)NC2CC2)cc1-c1cc2cnnc(-c3cc(F)ccc3Cl)c2n(C)c1=O` [Example 19, 3-(8-(2-chloro-5-fluorophenyl)-1-methyl-2-oxo-1,2-dihydropyrido[2,3-d]pyridazin-3-yl)-N-cyclopropyl-5-fluoro-4-methylbenzamide], for which the pIC50 is 8.80 at recombinant human p38α; at least 6.00 in assay [1] (LPS 100 ng/mL, 18 hours); at least 6.00 in assay [2] (setting [3]).

For `Cc1ccc(C(=O)Nc2ccon2)cc1-c1cc2cnnc(-c3ccc(F)cc3Cl)c2n(C)c1=O` [Example 21, 3-(8-(2-chloro-4-fluorophenyl)-1-methyl-2-oxo-1,2-dihydropyrido[2,3-d]pyridazin-3-yl)-N-3-isoxazolyl-4-methylbenzamide], the pIC50 was 9.10 on recombinant human p38α; at least 6.00 in assay [1] (LPS 100 ng/mL, 18 hours); at least 6.00 in assay [2] (setting [3]).
